In patent publication US9255295B2, “Method for evaluating the sensitizing potential of a test compound” (IMMUNOSEARCH, priority 2010, dated 2016):
Read-outs that look alike come from different tables or passages of the source.

Tests used:
[1] = system: ARE gene family (AKR1B10, AKR1C1, AKR1C2, CYP1B1, FTH1P, FTL, G6PD, GCLM, NQO2, SLC7A11, TXNRD1, UGT1A1, UGT1A9, YWHAZ, CD36, CYP1A1, GCLC, HMOX1, NQO1, PSME2 …)

`Nc1ccccc1O` [2-aminophenol] was tested, and the “S100A8 expression compared to control” value ([1]; 1%) was 1.2, the “S100A8 grade (NUMBER OF GENES)” value ([1]; 1%) was 0 (if this expression is lower, the grade is 0) and the “SLC7A11 expression compared to control” value ([1]; 1%) was 3.2. The “SLC7A11 grade (NUMBER OF GENES)” value ([1]; 1%) was 1 (If the expression is greater than 1.3 compared to the control, a grade of 11s given), the “TOTAL ARE (NUMBER OF GENES)” value ([1]; 1%) was 10 and the “TXNRD1 expression compared to control” value ([1]; 1%) was 4.8. For the same compound, the “TXNRD1 grade (NUMBER OF GENES)” value ([1]; 1%) was 1 (If the expression is greater than 1.3 compared to the control, a grade of 11s given), the “UGT1A1 expression compared to control” value ([1]; 1%) was 1.6 and the “UGT1A1 grade (NUMBER OF GENES)” value ([1]; 1%) was 1 (If the expression is greater than 1.3 compared to the control, a grade of 11s given). For the same compound, the “UGT1A9 expression compared to control” value ([1]; 1%) was 1.0, the “UGT1A9 grade (NUMBER OF GENES)” value ([1]; 1%) was 0 (if this expression is lower, the grade is 0) and the “AHR expression compared to control” value ([1]; 10%) was 0.7. For the same compound, the “AHR grade (NUMBER OF GENES)” value ([1]; 10%) was 0 (if this expression is lower, the grade is 0), the “AKR1B10 expression compared to control” value ([1]; 10%) was 1.1 and the “AKR1B10 grade (NUMBER OF GENES)” value ([1]; 10%) was 0 (if this expression is lower, the grade is 0). The “AKR1C1 expression compared to control” value ([1]; 10%) was 9.3, the “AKR1C1 grade (NUMBER OF GENES)” value ([1]; 10%) was 1 (If the expression is greater than 1.3 compared to the control, a grade of 11s given) and the “AKR1C2 expression compared to control” value ([1]; 10%) was 3.4. The “AKR1C2 grade (NUMBER OF GENES)” value ([1]; 10%) was 1 (If the expression is greater than 1.3 compared to the control, a grade of 11s given), the “ARE >1.3 (NUMBER OF GENES)” value ([1]; 10%) was 14 and the “CD36 expression compared to control” value ([1]; 10%) was 0.5. The “CD36 grade (NUMBER OF GENES)” value ([1]; 10%) was 0 (if this expression is lower, the grade is 0), the “CYP1A1 expression compared to control” value ([1]; 10%) was 122.0 and the “CYP1A1 grade (NUMBER OF GENES)” value ([1]; 10%) was 1 (If the expression is greater than 1.3 compared to the control, a grade of 11s given). The “CYP1B1 expression compared to control” value ([1]; 10%) was 45.1, the “CYP1B1 grade (NUMBER OF GENES)” value ([1]; 10%) was 1 (If the expression is greater than 1.3 compared to the control, a grade of 11s given) and the “FTH1P expression compared to control” value ([1]; 10%) was 1.5. For the same compound, the “FTH1P grade (NUMBER OF GENES)” value ([1]; 10%) was 1 (If the expression is greater than 1.3 compared to the control, a grade of 11s given), the “FTL expression compared to control” value ([1]; 10%) was 2.5 and the “FTL grade (NUMBER OF GENES)” value ([1]; 10%) was 1 (If the expression is greater than 1.3 compared to the control, a grade of 11s given). The “GCLC expression compared to control” value ([1]; 10%) was 2.3, the “GCLC grade (NUMBER OF GENES)” value ([1]; 10%) was 1 (If the expression is greater than 1.3 compared to the control, a grade of 11s given) and the “GCLM expression compared to control” value ([1]; 10%) was 4.6. The “GCLM grade (NUMBER OF GENES)” value ([1]; 10%) was 1 (If the expression is greater than 1.3 compared to the control, a grade of 11s given), the “HMOX1 expression compared to control” value ([1]; 10%) was 1.7 and the “HMOX1 grade (NUMBER OF GENES)” value ([1]; 10%) was 1 (If the expression is greater than 1.3 compared to the control, a grade of 11s given). For the same compound, the “NQO1 expression compared to control” value ([1]; 10%) was 2.5, the “NQO1 grade (NUMBER OF GENES)” value ([1]; 10%) was 1 (If the expression is greater than 1.3 compared to the control, a grade of 11s given) and the “NQO2 expression compared to control” value ([1]; 10%) was 1.4. For the same compound, the “NQO2 grade (NUMBER OF GENES)” value ([1]; 10%) was 1 (If the expression is greater than 1.3 compared to the control, a grade of 11s given), the “S100A8 expression compared to control” value ([1]; 10%) was 1.2 and the “S100A8 grade (NUMBER OF GENES)” value ([1]; 10%) was 0 (if this expression is lower, the grade is 0). The “SLC7A11 expression compared to control” value ([1]; 10%) was 3.8, the “SLC7A11 grade (NUMBER OF GENES)” value ([1]; 10%) was 1 (If the expression is greater than 1.3 compared to the control, a grade of 11s given) and the “TOTAL ARE (NUMBER OF GENES)” value ([1]; 10%) was 14. For the same compound, the “TXNRD1 expression compared to control” value ([1]; 10%) was 7.6, the “TXNRD1 grade (NUMBER OF GENES)” value ([1]; 10%) was 1 (If the expression is greater than 1.3 compared to the control, a grade of 11s given) and the “UGT1A1 expression compared to control” value ([1]; 10%) was 1.8. The “UGT1A1 grade (NUMBER OF GENES)” value ([1]; 10%) was 1 (If the expression is greater than 1.3 compared to the control, a grade of 11s given), the “UGT1A9 expression compared to control” value ([1]; 10%) was 1.2 and the “UGT1A9 grade (NUMBER OF GENES)” value ([1]; 10%) was 0 (if this expression is lower, the grade is 0). For the same compound, the “AHR expression compared to control” value ([1]; 50%) was 1.3, the “AHR grade (NUMBER OF GENES)” value ([1]; 50%) was 0 (if this expression is lower, the grade is 0) and the “AKR1B10 expression compared to control” value ([1]; 50%) was 1.3. For the same compound, the “AKR1B10 grade (NUMBER OF GENES)” value ([1]; 50%) was 1 (If the expression is greater than 1.3 compared to the control, a grade of 11s given), the “AKR1C1 expression compared to control” value ([1]; 50%) was 8.6 and the “AKR1C1 grade (NUMBER OF GENES)” value ([1]; 50%) was 1 (If the expression is greater than 1.3 compared to the control, a grade of 11s given). For the same compound, the “AKR1C2 expression compared to control” value ([1]; 50%) was 3.3, the “AKR1C2 grade (NUMBER OF GENES)” value ([1]; 50%) was 1 (If the expression is greater than 1.3 compared to the control, a grade of 11s given) and the “ARE >1.3 (NUMBER OF GENES)” value ([1]; 50%) was 14. For the same compound, the “CD36 expression compared to control” value ([1]; 50%) was 0.7, the “CD36 grade (NUMBER OF GENES)” value ([1]; 50%) was 0 (if this expression is lower, the grade is 0) and the “CYP1A1 expression compared to control” value ([1]; 50%) was 66.5. For the same compound, the “CYP1A1 grade (NUMBER OF GENES)” value ([1]; 50%) was 1 (If the expression is greater than 1.3 compared to the control, a grade of 11s given), the “CYP1B1 expression compared to control” value ([1]; 50%) was 37.7 and the “CYP1B1 grade (NUMBER OF GENES)” value ([1]; 50%) was 1 (If the expression is greater than 1.3 compared to the control, a grade of 11s given). The “FTH1P expression compared to control” value ([1]; 50%) was 2.0, the “FTH1P grade (NUMBER OF GENES)” value ([1]; 50%) was 1 (If the expression is greater than 1.3 compared to the control, a grade of 11s given) and the “FTL expression compared to control” value ([1]; 50%) was 3.5. For the same compound, the “FTL grade (NUMBER OF GENES)” value ([1]; 50%) was 1 (If the expression is greater than 1.3 compared to the control, a grade of 11s given), the “GCLC expression compared to control” value ([1]; 50%) was 4.0 and the “GCLC grade (NUMBER OF GENES)” value ([1]; 50%) was 1 (If the expression is greater than 1.3 compared to the control, a grade of 11s given). The “GCLM expression compared to control” value ([1]; 50%) was 4.7, the “GCLM grade (NUMBER OF GENES)” value ([1]; 50%) was 1 (If the expression is greater than 1.3 compared to the control, a grade of 11s given) and the “HMOX1 expression compared to control” value ([1]; 50%) was 1.9. The “HMOX1 grade (NUMBER OF GENES)” value ([1]; 50%) was 1 (If the expression is greater than 1.3 compared to the control, a grade of 11s given), the “NQO1 expression compared to control” value ([1]; 50%) was 3.3 and the “NQO1 grade (NUMBER OF GENES)” value ([1]; 50%) was 1 (If the expression is greater than 1.3 compared to the control, a grade of 11s given). For the same compound, the “NQO2 expression compared to control” value ([1]; 50%) was 1.3, the “NQO2 grade (NUMBER OF GENES)” value ([1]; 50%) was 0 (if this expression is lower, the grade is 0) and the “S100A8 expression compared to control” value ([1]; 50%) was 1.3. The “S100A8 grade (NUMBER OF GENES)” value ([1]; 50%) was 1 (If the expression is greater than 1.3 compared to the control, a grade of 11s given), the “SLC7A11 expression compared to control” value ([1]; 50%) was 6.0 and the “SLC7A11 grade (NUMBER OF GENES)” value ([1]; 50%) was 1 (If the expression is greater than 1.3 compared to the control, a grade of 11s given). The “TOTAL ARE (NUMBER OF GENES)” value ([1]; 50%) was 14, the “TXNRD1 expression compared to control” value ([1]; 50%) was 6.4 and the “TXNRD1 grade (NUMBER OF GENES)” value ([1]; 50%) was 1 (If the expression is greater than 1.3 compared to the control, a grade of 11s given). For the same compound, the “UGT1A1 expression compared to control” value ([1]; 50%) was 2.1, the “UGT1A1 grade (NUMBER OF GENES)” value ([1]; 50%) was 1 (If the expression is greater than 1.3 compared to the control, a grade of 11s given) and the “UGT1A9 expression compared to control” value ([1]; 50%) was 0.4. For the same compound, the “UGT1A9 grade (NUMBER OF GENES)” value ([1]; 50%) was 0 (if this expression is lower, the grade is 0) and the sensitizing power (class) (EPISKIN model) was “STRONG”.
